Data: US20260152487A1 (Sitryx Therapeutics Limited, priority 2021, published 2026)

How the values were obtained:
recombinant human PKM2 = molecular target: T1, recombinant human PKM2 (Homo sapiens, UniProt P14618); test: Human PKM2 activation assay (Kinase-Glo Plus luminescent detection of generated ATP); type: biochemical; details: for Emax: percentage activation normalised to DMSO vehicle (LOW) and 5 μM TEPP-46 (HIGH), read-out: hPKM2 Emax; for EC50: recombinant human PKM2 activation, 4-parameter logistic fit, read-out: hPKM2 EC50
T1 construct: His (N); purchased R&D Systems
T1 sequence (P14618 2-531 limits assumed): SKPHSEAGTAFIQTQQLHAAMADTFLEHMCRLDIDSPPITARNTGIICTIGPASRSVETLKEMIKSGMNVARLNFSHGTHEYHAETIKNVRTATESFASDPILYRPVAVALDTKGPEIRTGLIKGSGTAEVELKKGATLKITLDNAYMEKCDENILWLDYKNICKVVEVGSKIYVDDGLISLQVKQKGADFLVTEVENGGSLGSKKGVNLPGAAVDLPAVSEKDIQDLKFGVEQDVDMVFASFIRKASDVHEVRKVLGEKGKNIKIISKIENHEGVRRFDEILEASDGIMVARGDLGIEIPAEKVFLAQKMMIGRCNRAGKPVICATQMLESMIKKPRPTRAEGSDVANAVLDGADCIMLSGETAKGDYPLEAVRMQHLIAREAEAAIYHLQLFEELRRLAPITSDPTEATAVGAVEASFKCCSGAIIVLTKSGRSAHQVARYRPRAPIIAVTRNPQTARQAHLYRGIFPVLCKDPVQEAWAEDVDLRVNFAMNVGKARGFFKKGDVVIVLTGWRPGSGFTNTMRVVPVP
Method in brief: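 N-His-tagged recombinant hPKM2 ([…]) with PEP and ADP was incubated with compound for 60 min at 26 °C, shaking, in 50 mM imidazole, 50 mM KCl, 7 mM MgCl2, 0.01% Tween20, 0.05% BSA, pH 7.2. ATP produced was read by Kinase-Glo Plus luminescence after 15 min.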

recombinant human PKLR = molecular target: T2, recombinant human PKLR (Homo sapiens, UniProt P30613); test: Human PKLR activation assay (Kinase-Glo Plus luminescent detection of generated ATP); type: biochemical; details: for EC50: activation of recombinant human PKLR, 4-parameter logistic fit, read-out: hPKLR EC50; for Emax: percentage activation normalised to DMSO vehicle (LOW) and 5 μM TEPP-46 (HIGH) controls, read-out: hPKLR Emax (%)
T2 construct: His (N); purchased R&D Systems
T2 sequence (P30613 whole entry): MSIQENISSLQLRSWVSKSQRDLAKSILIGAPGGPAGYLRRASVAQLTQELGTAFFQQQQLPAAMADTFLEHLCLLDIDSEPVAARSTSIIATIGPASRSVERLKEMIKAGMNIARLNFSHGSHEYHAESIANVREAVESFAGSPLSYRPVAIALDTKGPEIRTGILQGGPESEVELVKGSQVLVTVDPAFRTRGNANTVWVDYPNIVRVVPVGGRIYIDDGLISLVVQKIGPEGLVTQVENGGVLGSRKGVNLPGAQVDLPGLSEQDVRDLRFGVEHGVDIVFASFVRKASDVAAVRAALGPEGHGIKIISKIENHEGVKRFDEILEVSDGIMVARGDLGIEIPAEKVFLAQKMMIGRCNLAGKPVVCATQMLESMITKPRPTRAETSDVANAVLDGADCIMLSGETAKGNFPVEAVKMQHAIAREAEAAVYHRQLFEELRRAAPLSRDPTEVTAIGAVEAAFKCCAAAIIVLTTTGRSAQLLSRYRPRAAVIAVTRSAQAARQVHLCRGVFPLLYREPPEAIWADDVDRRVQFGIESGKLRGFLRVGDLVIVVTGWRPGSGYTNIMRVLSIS

A549 cells = test: A549 cell proliferation in low-serine medium (CellTiter-Glo 2.0 viable cell number); type: cell-based; details: Homo sapiens, 72 h, 3 days, Assay Medium with 20 μM L-serine
Method in brief: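 A549 cells (600/well) were plated overnight and then exposed for 3 days at 37 °C to compound in Basal Medium Eagle with 3% dialysed FBS, 2 mM glutamine and 20 μM L-serine. Viable cell number was read by CellTiter-Glo luminescence and normalized to time-zero and DMSO controls. IC50 came from a 4-parameter logistic fit.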

| Compound | Emax (recombinant human PKM2) | EC50 (recombinant human PKM2) | EC50 (recombinant human PKLR) | Emax (recombinant human PKLR) | IC50 (A549 cells) |
| --- | --- | --- | --- | --- | --- |
| Nc1cccc(Cn2ncc3cc(S(=O)(=O)c4ccccc4)ccc3c2=O)n1 [Example 38, 2-((6-aminopyridin-2-yl)methyl)-6-(phenylsulfonyl)phthalazin-1(2H)-one] | 115% | 40.1 nM | 5.3 nM | 149% | 1.5 nM |
| O=c1c2ccc(S(=O)(=O)c3ccccc3)cc2cnn1Cc1ccn(C2CC2)n1 [Example 73, 2-((1-cyclopropyl-1H-pyrazol-3-yl)methyl)-6-(phenylsulfonyl)phthalazin-1(2H)-one] | 99.9% | 30.2 nM | 14 nM | 117% | 3.5 nM |
| Cc1cn(C)nc1Cn1ncc2cc(S(=O)(=O)c3ccccc3)ccc2c1=O [Example 89, 2-((1,4-dimethyl-1H-pyrazol-3-yl)methyl)-6-(phenylsulfonyl)phthalazin-1(2H)-one] | 101% | 50.8 nM | 9.6 nM | 135% | 1.7 nM |
